# Experimental data published in article PMC12052742, “Engineering a newly identified alcohol dehydrogenase from Sphingobium Sp. for efficient utilization of nicotinamide cofactors biomimetics” (Bioresources and Bioprocessing, 2025).
# Key:
# SpADH2 variant A290I [1] = test: Activity of variant in oxidation of syringyl alcohol with p-BANA^+ (Fig. 5), A290I; assay type: biochemical, Sphingobium sp. SYK-6; conditions: cofactor p-BANA^+, substrate syringyl alcohol
# Experimental: (§1) In the first round of screening, saturation mutagenesis was constructed for six positions (W114, T177, G172, G316, A47, and R227). […] Therefore, in the second round of mutagenesis, six additional sites within the 5 Å range of the cofactor ribose (H43, V202, T265, V288, G289, and A290) were selected for saturation mutagenesis screening (Fig. 6c and Fig. S6). Three beneficial mutations were identified. […] Subsequently, combinatorial mutagenesis was performed, resulting in 11 double variants and 3 triple variants.
# (§2) Fig. 5 Relative activity of SpADH2 and its variants in oxidation of syringyl alcohol when utilizing p-BANA^+ as cofactor
# (§3) In preliminary screening by spectrophotometric analysis, PBS (pH 7.5) buffer (50 µL) in a 96-well plate was pre-warmed at 30°C for 15 min, and a final concentration of 5 mM p-BANA^+ and 1 mM substrate syringyl alcohol were added, and 50 µL of crude enzyme were add to each well to start the reaction, with WT as control. The reaction mixture was incubated at 30°C for 1 h, followed by addition of fluorescent probes in a final concentration of 0.2 mM, and was subjected to determination under 537 nm as described above.
# SpADH2 variant A290I [2] = test: Substrate kinetic assay, A290I; assay type: biochemical, Sphingobium sp. SYK-6
# Experimental: (§4) Specific activity of SpADH2 in substrate spectrum study was measured spectrophotometrically. PBS (pH 7.5) buffer was pre-heated at 30°C for 15 min. For NAD^+, 0.05 µg SpADH2 was added to the PBS buffer (100 µL), and a final concentration of 2 mM NAD^+ was added. For tsNCBs cofactor p-BANA^+, 5 µg SpADH2 and a final concentration of 7.5 mM p-BANA^+ was added. The mixture was carried out in a 96-well microplate, and a final concentration of 5 mM substrate was added to start the reaction. The microplate was incubated in 30°C for 1 h. Florescent probes (2-[2-(1,4-dihydro-1-methyl-3-quinolinyl)ethenyl]-1,3,3-trimethyl-3H-indolium) in a final concentration of 0.2 mM (100 µL) was added (Scheme S1), and the microplate was placed in a microplate reader immediately for measurement under 537 nm (Fomin et al. [2016]).
# (§5) Kinetic analysis of SpADH2 and its variants were carried out following Michaelis-Menten equation or Michaelis-Menten excess substrate inhibition equation. For of the substrate kinetic assays, concentrations of cofactors were fixed at 5 mM for NAD^+ and 7.5 mM for p-BANA^+. For cofactor kinetic assays, the concentration of 1a was fixed at 5 mM.
# (§6) Specific activity was determined spectrophotometrically as above except that gradient 1a (0−20 mM) or cofactor (0−35 mM) concentrations were applied.
# (§7) Cofactor specificity ratio (CSR) represents the ratio of catalytic efficiency of p-BANA^+ to NAD^+ for each enzyme, and relative specificity (RS) stands for the CSR ratio of variants to WT (King et al. [2020]).
# [3] = tested on: SpADH2 variant H43L/A290I; test: Substrate kinetic assay, H43L/A290I; assay type: biochemical, Sphingobium sp. SYK-6
# Experimental: as §4, §5, §6, §7
# SpADH2 variant A47L = test: Activity of variant in oxidation of syringyl alcohol with p-BANA^+ (Fig. 5), A47L; assay type: biochemical, Sphingobium sp. SYK-6; conditions: cofactor p-BANA^+, substrate syringyl alcohol
# Experimental: as §1, §2, §3
# [4] = tested on: SpADH2 variant H43L/A290I; test: Activity of variant in oxidation of syringyl alcohol with p-BANA^+ (Fig. 5), H43L/A290I; assay type: biochemical, Sphingobium sp. SYK-6; conditions: cofactor p-BANA^+
# Experimental: as §1, §2, §3
# SpADH2 variant H43L = test: Activity of variant in oxidation of syringyl alcohol with p-BANA^+ (Fig. 5), H43L; assay type: biochemical, Sphingobium sp. SYK-6; conditions: cofactor p-BANA^+, substrate syringyl alcohol
# Experimental: as §1, §2, §3
# SpADH2 variant A290I [5] = test: Cofactor spectrum (HPLC specific activity), variant A290I; assay type: biochemical, Sphingobium sp. SYK-6; conditions: 1a 5 mM, cofactor 7.5 mM, pH 7.5, 30℃, 5 µg enzyme, 1 h
# Experimental: Fig. 8 Cofactor spectrums of SpADH2 and its variants. The darkness of color for each cofactor stands for the activity. For each cofactor cube, top left: WT, top right: H43L, bottom left: A290I, bottom right: H43L/A290I. (a) Natural cofactors and NMN^+ are shown in purple. (b) tsNCBs are shown in cyan. The evaluation of cofactor spectrum was carried out under following conditions: 50 mM PBS buffer (pH 7.5) and 30℃, with 1a (5 mM) as substrate and different cofactors (7.5 mM) as cofactor. For NAD(P)^+ and NMN^+, 0.05 µg enzyme was added, and for tsNCBs, 5 µg enzyme was added. The results were analyzed by HPLC after 1 h reaction
# (§8) Specific activity of SpADH2 in cofactor spectrum study was determined by HPLC analysis. PBS (pH 7.5) buffer was pre-heated at 30°C for 15 min. For NAD(P)^+ and NMN^+, 0.05 µg SpADH2 was added to PBS buffer (100 µL). For tsNCBs, 5 µg SpADH2 was added. A final concentration of 7.5 mM cofactor was added to the reaction mixture. Finally, a final concentration of 5 mM substrate was added to start the reaction. The reactions were conducted at 30°C.
# (§9) One unit of enzyme activity is defined as the amount of enzyme required to form 1 µmol 1b per minute at pH 7.5 and 30°C. Same reaction without cofactor was used as a blank control.
# SpADH2 = test: Cofactor spectrum of syringyl alcohol oxidation (HPLC specific activity), WT; assay type: biochemical, Sphingobium sp. SYK-6
# Experimental: Fig. 2 Cofactor spectrum of syringyl alcohol oxidation catalyzed by SpADH2. The darkness of the background color for each cofactor stands for the activity of SpADH2 utilizing various cofactors. (a) NAD(P) ^+ and NMN^+ are shown in purple background. (b) tsNCBs are shown in cyan background. The evaluation of cofactor spectrum of SpADH2 was carried out under following conditions: 50 mM PBS buffer (pH 7.5) and 30℃, with 1a (5 mM) as substrate and different cofactors (7.5 mM) as cofactor. For NAD(P)^+ and NMN^+, 0.05 µg SpADH2 was added, and for tsNCBs, 5 µg SpADH2 was added. The results were analyzed by HPLC after 1 h reaction
# as §8, §9
# SpADH2 WT = SpADH2 WT (Sphingobium sp. SYK-6, UniProt G2IIZ8); test: Cofactor kinetic assay, WT; assay type: biochemical
# Sequence of SpADH2 WT (G2IIZ8 1-372): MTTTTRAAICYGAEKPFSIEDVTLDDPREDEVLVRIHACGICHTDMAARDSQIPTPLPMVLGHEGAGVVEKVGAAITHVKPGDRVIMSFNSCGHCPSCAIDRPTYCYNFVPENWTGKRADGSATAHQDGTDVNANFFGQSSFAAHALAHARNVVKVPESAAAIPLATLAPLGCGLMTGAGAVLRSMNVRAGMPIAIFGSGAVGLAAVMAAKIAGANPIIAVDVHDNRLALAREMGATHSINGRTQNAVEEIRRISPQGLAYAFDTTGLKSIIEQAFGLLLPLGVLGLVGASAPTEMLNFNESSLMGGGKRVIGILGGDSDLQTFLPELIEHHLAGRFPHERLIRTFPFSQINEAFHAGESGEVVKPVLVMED
# Experimental: as §4, §5, §6, §7
# [6] = 1a varied, cofactor (= label) fixed: 5 mM NAD^+ or 7.5 mM p-BANA^+
# [7] = substrate kinetics, cofactor = label
structure (smiles),measurement,setting,value
"NC(=O)c1ccc[n+](Cc2ccc(C(=O)O)cc2)c1 [p-BANA^+, para-3-carbamoyl-1-(4-carboxybenzyl)pyridin-1-ium]",fold increase in activity vs WT,SpADH2 variant A290I [1],10 fold
same,kcat,SpADH2 variant A290I [2]; [6],11 ± 4.1 min^− 1
same,Cofactor specificity ratio (catalytic efficiency of p-BANA^+ to NAD^+),SpADH2 variant A290I [2]; substrate kinetics,2.95×10^-4
same,Relative specificity (CSR ratio of variant to WT),SpADH2 variant A290I [2]; substrate kinetics,19.4
same,fold increase in kcat vs WT,SpADH2 variant A290I [2]; [7],10 fold
same,kcat,[3]; [6],6.8 ± 1.6 min^− 1
same,Cofactor specificity ratio (catalytic efficiency of p-BANA^+ to NAD^+),[3]; substrate kinetics,0.1026
same,fold increase in kcat vs WT,[3]; [7],6 fold
same,reduce in Km value vs WT,[3]; [7],30%
same,Relative specificity (CSR ratio of variant to WT),"[3]; substrate kinetics, in text as fold improvement in CSR",6750
same,fold higher activity than WT,SpADH2 variant A47L,4.3 fold
same,fold higher activity than WT,[4]; substrate syringyl alcohol,7 fold
same,activity,[4]; substrate syringyl alcohol (Fig. 5),70 U/g
same,fold increase in activity vs WT,SpADH2 variant H43L,2 fold
same,catalytic activity with the tsNCB as cofactor,SpADH2 variant A290I [5],160.82 U/g
same,activity of SpADH2 with the tsNCB as cofactor,"SpADH2; 1a 5 mM, cofactor 7.5 mM, pH 7.5, 30℃, 5 µg SpADH2, 1 h",11.55 U/g
same,fold increasement of activity compared with preliminary assay,SpADH2; optimized conditions vs preliminary assay,7.1 fold
same,kcat,"SpADH2 WT; cofactor (= label) varied, 1a fixed at 5 mM",1.6 ± 0.5 min^− 1
same,Ki,"SpADH2 WT; cofactor (= label) varied, 1a fixed at 5 mM, read-out: Ki (cofactor inhibition)",12 ± 4.7 mM
same,Cofactor specificity ratio (catalytic efficiency of p-BANA^+ to NAD^+),SpADH2 WT; cofactor kinetics,3.81×10^-5
